Literature values as cited in publication PMC4483627 (Marine Drugs, 2015).

Biological target: T1, rat nAChR α3β4 (Rattus norvegicus, UniProt P04757+P12392)
T1 construct: expressed in transfected cells; host or cells: Xenopus oocytes injected with cRNA
Conditions: cited from earlier work

T1 sequence (P04757 26-499 limits assumed): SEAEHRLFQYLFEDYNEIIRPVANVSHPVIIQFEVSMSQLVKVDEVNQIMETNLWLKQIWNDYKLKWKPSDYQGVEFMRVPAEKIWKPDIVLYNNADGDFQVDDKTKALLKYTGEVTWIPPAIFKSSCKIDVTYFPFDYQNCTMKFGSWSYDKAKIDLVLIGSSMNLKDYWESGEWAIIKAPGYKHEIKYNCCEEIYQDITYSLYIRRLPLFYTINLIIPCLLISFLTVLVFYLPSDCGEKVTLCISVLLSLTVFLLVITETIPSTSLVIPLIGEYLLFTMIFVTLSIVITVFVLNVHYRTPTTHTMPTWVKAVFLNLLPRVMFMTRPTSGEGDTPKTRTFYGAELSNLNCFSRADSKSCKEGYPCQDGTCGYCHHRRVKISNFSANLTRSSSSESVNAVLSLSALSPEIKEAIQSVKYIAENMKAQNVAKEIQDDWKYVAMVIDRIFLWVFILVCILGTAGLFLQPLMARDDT
T1 sequence (P12392 21-495 limits assumed): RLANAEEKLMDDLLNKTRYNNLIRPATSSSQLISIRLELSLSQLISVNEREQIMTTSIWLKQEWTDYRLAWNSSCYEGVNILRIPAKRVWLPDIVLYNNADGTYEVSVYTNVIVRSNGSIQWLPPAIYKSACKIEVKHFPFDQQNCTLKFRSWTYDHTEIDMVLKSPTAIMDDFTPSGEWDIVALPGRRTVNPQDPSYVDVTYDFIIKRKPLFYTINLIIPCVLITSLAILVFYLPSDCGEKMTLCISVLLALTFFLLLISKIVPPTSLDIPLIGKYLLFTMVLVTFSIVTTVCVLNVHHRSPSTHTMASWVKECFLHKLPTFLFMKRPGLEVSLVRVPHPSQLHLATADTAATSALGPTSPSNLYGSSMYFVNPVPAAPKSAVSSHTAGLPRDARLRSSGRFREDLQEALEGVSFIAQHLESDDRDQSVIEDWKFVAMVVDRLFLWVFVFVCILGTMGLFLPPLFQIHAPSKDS

G CC SHP V C SAMS P I- C * (bicyclic or more) [TxID]
IC50: 12.5 nM
